Some test systems named below: A498 renal; LOX IMVI melanoma; UO-31 renal; HCT-116 colon; MOLT-4 leukemia; NCI-H522 lung; SN12C renal; HCT-15 colon; SF-295 CNS.
Common to all, as to experiment: NCI anticancer screen, dose series, 48 h

SMILES strings stand for the structures. Values joined by “and” are separate entries in the source; they are usually repeats but may differ in a detail not shown here. Equal values may be shown once.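 Results reflect a 48-hour exposure of cells in 96-well plates to compound at five concentrations. Here, GI50 denotes the concentration required for 50% inhibition of growth. TGI marks complete inhibition of growth.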 Where only a bound is given, the exact number is not on record here.

Turning to `Cc1ccc(/C(=N\N=C(N)N)c2ccccc2)cc1`, the GI50 with A498 renal is 0.272 µM; in the assay on LOX IMVI melanoma it was 0.611 µM; in the assay with UO-31 renal, 1.12 µM; with HCT-116 colon, 0.342 µM; with MOLT-4 leukemia, 0.796 µM; with NCI-H522 lung, 0.372 µM. The GI50 in the assay on SN12C renal is 0.587 µM; in the assay on HCT-15 colon it was 0.371 µM; with SF-295 CNS it was 0.306 µM. In addition, the TGI is 1.02 µM with A498 renal; 12.5 µM with LOX IMVI melanoma; 17.1 µM with UO-31 renal; 11.3 µM in the assay with HCT-116 colon; over 92.3 µM in the assay on MOLT-4 leukemia; 13.3 µM in the assay on NCI-H522 lung. For the same compound, the figures for the TGI in the assay on SN12C renal, in the assay on HCT-15 colon and with SF-295 CNS were 13.4 µM, 11.5 µM and 3.15 µM, respectively.
Regarding `CCCCCCCNc1nc(C(=O)OCC)ncc1-c1ccc(C(F)(F)F)cc1`, the GI50 in the assay with A498 renal is 16 µM; with LOX IMVI melanoma it was 40.9 µM; with UO-31 renal, 16.4 µM; in the assay with HCT-116 colon, 32 µM; in the assay with MOLT-4 leukemia, 34.4 µM; with NCI-H522 lung, 31.3 µM. Besides, the GI50 in the assay on SN12C renal is 33.8 µM; in the assay on HCT-15 colon, 33.2 µM; in the assay on SF-295 CNS, 26.4 µM. For the same compound, the TGI was over 100 µM with A498 renal; over 100 µM in the assay with LOX IMVI melanoma; 77.1 µM with UO-31 renal; over 100 µM in the assay on HCT-116 colon; 96.2 µM in the assay on MOLT-4 leukemia; over 100 µM with NCI-H522 lung. Besides, the TGI in the assay on SN12C renal, in the assay with HCT-15 colon and in the assay on SF-295 CNS was over 100 µM each time.
With `CSC(CC(=O)O)C(=O)O` (stereo not given), the TGI with A498 renal, with LOX IMVI melanoma, in the assay on UO-31 renal, in the assay with HCT-116 colon, in the assay with MOLT-4 leukemia and in the assay with NCI-H522 lung was over 100 µM in each case. The TGI in the assay on SN12C renal, in the assay with HCT-15 colon and in the assay on SF-295 CNS was over 100 µM in each case.
For the compound `O=C1C(c2c[nH]c3ccccc23)=C(c2c[nH]c3ccccc23)C(=O)N1O`, the GI50 in the assay on A498 renal was 8.1 µM; in the assay with LOX IMVI melanoma, 4.65 µM; with UO-31 renal, 5.78 µM; in the assay with HCT-116 colon, over 25 µM; in the assay with MOLT-4 leukemia, over 25 µM; in the assay with NCI-H522 lung, over 25 µM. Moreover, the GI50 in the assay with SN12C renal, in the assay with HCT-15 colon and in the assay on SF-295 CNS was over 25 µM in each case. For the same compound, the TGI in the assay on A498 renal, in the assay on LOX IMVI melanoma, in the assay on UO-31 renal, with HCT-116 colon, in the assay on MOLT-4 leukemia and in the assay with NCI-H522 lung was over 25 µM each time. Besides, the TGI in the assay with SN12C renal, with HCT-15 colon and in the assay on SF-295 CNS was over 25 µM throughout.
Regarding `COc1ccc(-c2oc3c(OC)c(OC)c(OC)c(O)c3c(=O)c2OC)cc1OC`, the TGI in the assay with A498 renal is over 64.8 µM; with LOX IMVI melanoma, over 76.3 µM; in the assay with UO-31 renal, over 78.7 µM; in the assay on HCT-116 colon, over 100 µM; in the assay on MOLT-4 leukemia it was 51.9 µM; in the assay with NCI-H522 lung, 44.6 µM. The values for the TGI with SN12C renal, in the assay with HCT-15 colon and with SF-295 CNS were over 100 µM, over 100 µM and over 76.5 µM, respectively.
Regarding `CCc1n(Cc2ccc3ccccc3n2)cc[n+]1Cc1ccc2ccccc2n1`, the GI50 is 0.303 µM in the assay on A498 renal; 0.596 µM in the assay with LOX IMVI melanoma; 21.2 µM in the assay with UO-31 renal; 1.35 µM in the assay on HCT-116 colon; 0.437 µM with MOLT-4 leukemia; 0.0837 µM in the assay on NCI-H522 lung. Further, the values for the GI50 with SN12C renal, in the assay with HCT-15 colon and with SF-295 CNS were 0.317 µM, 65.7 µM and 2.81 µM, respectively. Further, the TGI is 9.38 µM in the assay on A498 renal; 13.2 µM in the assay on LOX IMVI melanoma; over 100 µM in the assay with UO-31 renal; 29.7 µM in the assay on HCT-116 colon; 10.1 µM with MOLT-4 leukemia; 1.49 µM with NCI-H522 lung. Also, the TGI in the assay on SN12C renal is 7.75 µM; with HCT-15 colon, over 100 µM; in the assay on SF-295 CNS it was 20.1 µM.
On to `COc1cc(/C=C2\CCC/C(=C\c3cc(OC)c(O)c(OC)c3)C2=O)cc(OC)c1O`, for which the GI50 with A498 renal is 2.18 µM; in the assay with LOX IMVI melanoma it was 1.53 µM; in the assay on UO-31 renal, 2.05 µM; with HCT-116 colon, 2.56 µM; in the assay with MOLT-4 leukemia, 2.97 µM; in the assay with NCI-H522 lung it was 1.24 µM. Further, the GI50 in the assay with SN12C renal is 4.37 µM; with SF-295 CNS, 4.98 µM. Also, the TGI with A498 renal was 3.21 µM and 4.81 µM; in the assay with UO-31 renal, 3.46 µM and 4.97 µM; in the assay with MOLT-4 leukemia it was 75 µM and 36.5 µM; in the assay with NCI-H522 lung it was 3.5 µM and 2.85 µM; in the assay on SN12C renal, 75 µM and > 100 µM; with HCT-15 colon it was 3.45 µM.
With `O=[N+]([O-])c1ccc(S(=O)Cc2ccccc2)c([N+](=O)[O-])c1` (stereo not given), the GI50 in the assay on A498 renal is 13 µM; with LOX IMVI melanoma, 1.6 µM; with UO-31 renal it was 1.47 µM; in the assay on HCT-116 colon it was 1.29 µM; with MOLT-4 leukemia, 2.1 µM; with NCI-H522 lung, 1.32 µM. Also, the results for the GI50 with SN12C renal, with HCT-15 colon and in the assay on SF-295 CNS were 11.6 µM, 1.85 µM and 13.2 µM, respectively. The TGI came out at 25.7 µM in the assay on A498 renal; 2.94 µM with LOX IMVI melanoma; 2.91 µM with UO-31 renal; 2.55 µM with HCT-116 colon; 4.88 µM in the assay on MOLT-4 leukemia; 2.94 µM in the assay on NCI-H522 lung. In addition, the TGI came out at 33.1 µM in the assay on SN12C renal, 3.88 µM in the assay with HCT-15 colon and 26.9 µM in the assay with SF-295 CNS.
On to `C=C1SC(=Nc2c(C)cc(C)cc2C)N(C(=O)c2sc3ccccc3c2Cl)C12CCCCC2`, for which the GI50 with A498 renal was over 100 µM; with LOX IMVI melanoma, over 100 µM; in the assay with UO-31 renal, 63.8 µM; in the assay on HCT-116 colon, over 100 µM; in the assay with MOLT-4 leukemia, 26.3 µM; with NCI-H522 lung it was 28.6 µM. Further, the GI50 was over 100 µM in the assay with SN12C renal, over 100 µM with HCT-15 colon and 42.3 µM in the assay with SF-295 CNS. Moreover, the TGI in the assay with A498 renal, in the assay with LOX IMVI melanoma, in the assay on UO-31 renal, in the assay on HCT-116 colon, with MOLT-4 leukemia and in the assay with NCI-H522 lung was over 100 µM in each case. Further, the TGI in the assay on SN12C renal, in the assay with HCT-15 colon and in the assay with SF-295 CNS was over 100 µM in each case.
